Experimental data published in patent publication US20220348569A1 (priority 2021, published 2022).
Converted amounts (≈) assume the structure as drawn. “And” between values parts separate entries of the source, which are not always exact repeats. Equal values may be shown once. “Also recorded” adds a separate entry of the source. Read-outs that look alike come from different tables or passages of the source.

Columns and labels:
CYP2D6 [1] = target: T1, CYP2D6 (Homo sapiens, UniProt P10635); test: biochemical
T1 sequence (P10635 whole entry): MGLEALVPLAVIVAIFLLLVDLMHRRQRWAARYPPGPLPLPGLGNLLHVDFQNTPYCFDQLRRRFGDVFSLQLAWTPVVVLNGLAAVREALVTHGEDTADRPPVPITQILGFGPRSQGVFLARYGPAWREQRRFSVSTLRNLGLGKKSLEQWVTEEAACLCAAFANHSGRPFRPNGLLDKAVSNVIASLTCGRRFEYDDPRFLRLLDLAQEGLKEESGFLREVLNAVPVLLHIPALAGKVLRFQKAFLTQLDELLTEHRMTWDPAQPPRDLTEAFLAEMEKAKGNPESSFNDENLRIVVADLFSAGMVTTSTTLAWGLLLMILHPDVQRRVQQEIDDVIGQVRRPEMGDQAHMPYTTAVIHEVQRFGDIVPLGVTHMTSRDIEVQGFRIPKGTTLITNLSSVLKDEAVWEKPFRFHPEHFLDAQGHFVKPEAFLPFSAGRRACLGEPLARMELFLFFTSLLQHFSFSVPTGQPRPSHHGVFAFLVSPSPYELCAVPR

[2] = rat, in vivo
CYP3A = CYP3A (Homo sapiens, UniProt P08684)
Sequence of CYP3A (P08684 2-503): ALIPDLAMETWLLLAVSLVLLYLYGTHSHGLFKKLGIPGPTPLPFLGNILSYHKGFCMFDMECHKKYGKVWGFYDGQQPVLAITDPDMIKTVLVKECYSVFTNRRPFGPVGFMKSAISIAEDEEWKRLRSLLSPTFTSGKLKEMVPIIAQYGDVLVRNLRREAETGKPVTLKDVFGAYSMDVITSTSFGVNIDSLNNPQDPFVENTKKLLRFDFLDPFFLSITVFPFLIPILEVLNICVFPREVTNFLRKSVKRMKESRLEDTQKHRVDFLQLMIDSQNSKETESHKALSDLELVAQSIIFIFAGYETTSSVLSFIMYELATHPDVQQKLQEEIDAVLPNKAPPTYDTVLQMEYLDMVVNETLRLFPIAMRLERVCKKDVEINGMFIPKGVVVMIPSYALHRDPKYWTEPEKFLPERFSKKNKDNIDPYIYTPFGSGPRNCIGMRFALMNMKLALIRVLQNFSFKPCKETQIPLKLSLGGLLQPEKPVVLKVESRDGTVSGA

in vitro = settings: human
SARS-CoV pseudovirus [3] = test: microbe, parasite or virus in culture; assay type: cell-based; settings: Severe acute respiratory syndrome coronavirus, 293T/ACE2
CYP2D6 [4] = target: T1, CYP2D6
CYP2C19 = CYP2C19 (Homo sapiens, UniProt P33261)
Sequence of CYP2C19 (P33261 whole entry): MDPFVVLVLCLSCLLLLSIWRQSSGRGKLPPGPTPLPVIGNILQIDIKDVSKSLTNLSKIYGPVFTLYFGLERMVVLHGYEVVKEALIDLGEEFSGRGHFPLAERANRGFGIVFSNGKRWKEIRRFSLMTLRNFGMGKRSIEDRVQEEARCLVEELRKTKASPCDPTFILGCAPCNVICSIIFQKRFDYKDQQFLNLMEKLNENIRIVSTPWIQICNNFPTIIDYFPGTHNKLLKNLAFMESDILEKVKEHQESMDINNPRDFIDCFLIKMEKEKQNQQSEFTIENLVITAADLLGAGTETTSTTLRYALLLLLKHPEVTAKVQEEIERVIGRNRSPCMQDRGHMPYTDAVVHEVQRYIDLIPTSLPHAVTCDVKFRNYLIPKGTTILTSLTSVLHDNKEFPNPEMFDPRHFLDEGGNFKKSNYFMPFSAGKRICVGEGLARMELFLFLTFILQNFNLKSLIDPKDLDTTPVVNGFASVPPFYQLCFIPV

CYP2B6 = CYP2B6 (Homo sapiens, UniProt P20813)
Sequence of CYP2B6 (P20813 whole entry): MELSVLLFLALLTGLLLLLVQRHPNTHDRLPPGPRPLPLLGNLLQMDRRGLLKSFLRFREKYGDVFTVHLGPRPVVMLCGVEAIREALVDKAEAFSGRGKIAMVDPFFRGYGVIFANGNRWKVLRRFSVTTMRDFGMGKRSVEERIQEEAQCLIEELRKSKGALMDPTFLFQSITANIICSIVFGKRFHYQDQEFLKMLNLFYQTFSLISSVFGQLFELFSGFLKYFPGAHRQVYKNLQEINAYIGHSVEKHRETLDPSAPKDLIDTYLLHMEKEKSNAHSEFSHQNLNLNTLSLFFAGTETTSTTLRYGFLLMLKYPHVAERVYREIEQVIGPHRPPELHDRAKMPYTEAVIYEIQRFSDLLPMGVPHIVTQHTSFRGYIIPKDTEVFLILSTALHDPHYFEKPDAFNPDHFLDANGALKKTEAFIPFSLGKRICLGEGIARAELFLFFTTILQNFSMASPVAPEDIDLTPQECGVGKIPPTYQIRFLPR

CYP1A2 = CYP1A2 (Homo sapiens, UniProt P05177)
Sequence of CYP1A2 (P05177 whole entry): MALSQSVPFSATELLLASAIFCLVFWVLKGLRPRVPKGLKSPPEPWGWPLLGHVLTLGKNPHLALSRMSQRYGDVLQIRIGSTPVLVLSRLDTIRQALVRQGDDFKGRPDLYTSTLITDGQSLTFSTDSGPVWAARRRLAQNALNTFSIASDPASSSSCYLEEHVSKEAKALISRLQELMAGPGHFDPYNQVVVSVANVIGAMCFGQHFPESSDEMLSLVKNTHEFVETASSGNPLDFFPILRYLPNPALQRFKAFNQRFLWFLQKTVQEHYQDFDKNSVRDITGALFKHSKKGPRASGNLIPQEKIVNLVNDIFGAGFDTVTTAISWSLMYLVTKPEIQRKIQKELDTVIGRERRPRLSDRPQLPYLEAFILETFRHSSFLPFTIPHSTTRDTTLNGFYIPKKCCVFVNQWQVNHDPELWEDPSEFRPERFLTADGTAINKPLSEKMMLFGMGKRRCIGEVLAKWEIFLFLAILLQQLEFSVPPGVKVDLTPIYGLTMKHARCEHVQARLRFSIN

CYP2C9 = CYP2C9 (Homo sapiens, UniProt P11712)
Sequence of CYP2C9 (P11712 whole entry): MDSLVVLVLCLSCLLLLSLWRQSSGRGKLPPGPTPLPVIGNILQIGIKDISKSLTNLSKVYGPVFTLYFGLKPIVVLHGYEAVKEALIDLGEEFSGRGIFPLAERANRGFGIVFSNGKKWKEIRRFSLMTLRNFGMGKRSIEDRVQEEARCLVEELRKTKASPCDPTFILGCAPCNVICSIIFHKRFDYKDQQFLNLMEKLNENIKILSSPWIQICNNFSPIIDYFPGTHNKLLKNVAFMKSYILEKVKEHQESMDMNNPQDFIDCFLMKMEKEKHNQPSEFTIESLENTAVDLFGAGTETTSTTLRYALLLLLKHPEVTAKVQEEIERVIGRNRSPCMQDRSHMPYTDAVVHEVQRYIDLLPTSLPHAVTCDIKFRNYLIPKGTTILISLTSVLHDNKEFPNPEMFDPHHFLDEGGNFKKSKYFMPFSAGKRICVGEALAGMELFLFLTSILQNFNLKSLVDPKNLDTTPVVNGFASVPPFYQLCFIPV

CYP2C8 = CYP2C8 (Homo sapiens, UniProt P10632)
Sequence of CYP2C8 (P10632 whole entry): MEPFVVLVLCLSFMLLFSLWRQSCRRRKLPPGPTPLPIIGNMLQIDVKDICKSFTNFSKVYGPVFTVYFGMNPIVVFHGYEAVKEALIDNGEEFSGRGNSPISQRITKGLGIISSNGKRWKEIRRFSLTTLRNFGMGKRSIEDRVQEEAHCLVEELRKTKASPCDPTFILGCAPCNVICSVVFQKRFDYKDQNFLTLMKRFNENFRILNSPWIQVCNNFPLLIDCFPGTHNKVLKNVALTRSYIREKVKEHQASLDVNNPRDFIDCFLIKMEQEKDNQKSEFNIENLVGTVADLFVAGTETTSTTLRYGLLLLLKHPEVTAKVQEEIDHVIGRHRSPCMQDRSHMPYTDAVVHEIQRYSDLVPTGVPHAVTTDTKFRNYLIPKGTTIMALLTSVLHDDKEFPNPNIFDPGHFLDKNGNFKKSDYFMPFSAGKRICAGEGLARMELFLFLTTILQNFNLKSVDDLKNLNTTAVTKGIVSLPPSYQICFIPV

[5] = target: SARS-CoV-2 spike (active trimer) His-tag (Severe acute respiratory syndrome coronavirus 2, UniProt P0DTC2); assay type: binding
[6] = pH 7.4
MERS-CoV pseudovirus [7] = test: microbe, parasite or virus in culture; assay type: cell-based; settings: Middle East respiratory syndrome-related coronavirus, MRC5
[8] = system: SARS-CoV-2 (US_WA-1/2020); assay type: cell-based
[9] = system: SARS-CoV-2 full Spike wild-type (Wuhan-Hu-1) mediated cell-to-cell fusion; test: cells; assay type: cell-based
[10] = human, microsomes
SARS-CoV-2 pseudovirus = test: microbe, parasite or virus in culture; assay type: cell-based
SARS-CoV pseudovirus [11] = test: microbe, parasite or virus in culture; assay type: cell-based; settings: Severe acute respiratory syndrome coronavirus, A549-ACE2
MERS-CoV pseudovirus [12] = test: microbe, parasite or virus in culture; assay type: cell-based; settings: Middle East respiratory syndrome-related coronavirus, Huh-7
in vivo = settings: female, Sprague Dawley, rat
[13] = female, Sprague Dawley, iv, 5 mg/kg

O=C(O)c1cc(-c2ccc(/C=C3\SC(=S)N(CCc4ccccc4)C3=O)o2)ccc1Cl [Compound 1, (Z)-2-Chloro-5-(5-((4-oxo-3-phenethyl-2-thioxothiazolidin-5-ylidene)methyl)furan-2-yl)benzoic acid]
IC50 (CYP2D6 [1]): > 10000 nM
C0 [2, 13]: 7407.25 ng/mL
CLobs [2, 13]: 0.00013 mg/kg/(ng/mL)/hr
MRT0-inf_obs [2, 13]: 4.02 h
Vss_obs [2, 13]: 0.00053 mg/kg/(ng/mL)
F % ([2]; female, Sprague-Dawley): 20.1%
MRT0-inf_obs ([2]; female, Sprague-Dawley, po, 10 mg/kg): 14.34 h
Vz/F_obs ([2]; po, 10 mg/kg): 0.01078 mg/kg/(ng/mL)
CYP inhibition class (CYP3A): low (key: IC50 >10 μM (CYP inhibition low); <10 μM (CYP inhibition moderate); <3 μM (CYP inhibition high))
% of Control Enzyme Activity (n = 1) (CYP3A; 0.0137 μM): 96.7% and 96.6%
% of Control Enzyme Activity (n = 1) (CYP3A; 0.0412 μM): 97.0%
% of Control Enzyme Activity (n = 1) (CYP3A; 0.123 μM): 94.5% and 94.8%
% of Control Enzyme Activity (n = 1) (CYP3A; 0.370 μM, 0.37 µM): 95.1% and 96.3%
% of Control Enzyme Activity (n = 1) (CYP3A; 1.11 μM): 95.9% and 94.6%
% of Control Enzyme Activity (n = 1) (CYP3A; 3.33 μM): 88.2% and 82.2%
% of Control Enzyme Activity (n = 1) (CYP3A; 10 μM): 61.6% and 59.9%
melting point: 348 to 350 °C
CC50 (in vitro): 37500 ± 1000 nM
IC50 (SARS-CoV pseudovirus [3]): 13.8 to 17 nM
CYP inhibition class (CYP2D6 [4]): low (key: IC50 >10 μM (CYP inhibition low); <10 μM (CYP inhibition moderate); <3 μM (CYP inhibition high))
% of Control Enzyme Activity (n = 1) (CYP2D6 [4]; 0.0137 μM): 95.8%
% of Control Enzyme Activity (n = 1) (CYP2D6 [4]; 0.0412 μM): 98.7%
% of Control Enzyme Activity (n = 1) (CYP2D6 [4]; 0.123 μM): 98.6%
% of Control Enzyme Activity (n = 1) (CYP2D6 [4]; 0.370 μM): 101%
% of Control Enzyme Activity (n = 1) (CYP2D6 [4]; 1.11 μM): 97.0%
% of Control Enzyme Activity (n = 1) (CYP2D6 [4]; 3.33 μM): 84.3%
% of Control Enzyme Activity (n = 1) (CYP2D6 [4]; 10 μM): 59.2%
CYP inhibition class (CYP2C19): moderate (key: IC50 >10 μM (CYP inhibition low); <10 μM (CYP inhibition moderate); <3 μM (CYP inhibition high))
% of Control Enzyme Activity (n = 1) (CYP2C19; 0.0137 μM): 103%
% of Control Enzyme Activity (n = 1) (CYP2C19; 0.0412 μM): 110%
% of Control Enzyme Activity (n = 1) (CYP2C19; 0.123 μM): 101%
% of Control Enzyme Activity (n = 1) (CYP2C19; 0.370 μM): 102%
% of Control Enzyme Activity (n = 1) (CYP2C19; 1.11 μM): 92.0%
% of Control Enzyme Activity (n = 1) (CYP2C19; 3.33 μM): 70.8%
% of Control Enzyme Activity (n = 1) (CYP2C19; 10 μM): 40.7%
IC50 (CYP2C19; human, microsomes, pH 7.4): 7310 nM
CYP inhibition class (CYP2B6): moderate (key: IC50 >10 μM (CYP inhibition low); <10 μM (CYP inhibition moderate); <3 μM (CYP inhibition high))
% of Control Enzyme Activity (n = 1) (CYP2B6; 0.0137 μM): 97.5%
% of Control Enzyme Activity (n = 1) (CYP2B6; 0.0412 μM): 98.1%
% of Control Enzyme Activity (n = 1) (CYP2B6; 0.123 μM): 90.4%
% of Control Enzyme Activity (n = 1) (CYP2B6; 0.370 μM): 94.2%
% of Control Enzyme Activity (n = 1) (CYP2B6; 1.11 μM): 76.9%
% of Control Enzyme Activity (n = 1) (CYP2B6; 3.33 μM): 47.0%
% of Control Enzyme Activity (n = 1) (CYP2B6; 10 μM): 15.2%
IC50 (CYP2B6; human, microsomes, pH 7.4): 3190 nM
CYP inhibition class (CYP1A2): moderate (key: IC50 >10 μM (CYP inhibition low); <10 μM (CYP inhibition moderate); <3 μM (CYP inhibition high))
% of Control Enzyme Activity (n = 1) (CYP1A2; 0.0137 μM): 99.2%
% of Control Enzyme Activity (n = 1) (CYP1A2; 0.0412 μM): 96.7%
% of Control Enzyme Activity (n = 1) (CYP1A2; 0.123 μM): 93.8%
% of Control Enzyme Activity (n = 1) (CYP1A2; 0.370 μM): 92.2%
% of Control Enzyme Activity (n = 1) (CYP1A2; 1.11 μM): 89.8%
% of Control Enzyme Activity (n = 1) (CYP1A2; 3.33 μM): 69.5%
% of Control Enzyme Activity (n = 1) (CYP1A2; 10 μM): 41.3%
IC50 (CYP1A2; human, microsomes, pH 7.4): 7400 nM
CYP inhibition class (CYP2C9): moderate (key: IC50 >10 μM (CYP inhibition low); <10 μM (CYP inhibition moderate); <3 μM (CYP inhibition high))
% of Control Enzyme Activity (n = 1) (CYP2C9; 0.0137 μM): 99.4%
% of Control Enzyme Activity (n = 1) (CYP2C9; 0.0412 μM): 98.2%
% of Control Enzyme Activity (n = 1) (CYP2C9; 0.123 μM): 97.2%
% of Control Enzyme Activity (n = 1) (CYP2C9; 0.370 μM): 95.1%
% of Control Enzyme Activity (n = 1) (CYP2C9; 1.11 μM): 85.1%
% of Control Enzyme Activity (n = 1) (CYP2C9; 3.33 μM): 59.9%
% of Control Enzyme Activity (n = 1) (CYP2C9; 10 μM): 29.8%
IC50 (CYP2C9; human, microsomes, pH 7.4): 5010 nM
CYP inhibition class (CYP2C8): high (key: IC50 >10 μM (CYP inhibition low); <10 μM (CYP inhibition moderate); <3 μM (CYP inhibition high))
% of Control Enzyme Activity (n = 1) (CYP2C8; 0.0137 μM): 102%
% of Control Enzyme Activity (n = 1) (CYP2C8; 0.0412 μM): 89.0%
% of Control Enzyme Activity (n = 1) (CYP2C8; 0.123 μM): 98.3%
% of Control Enzyme Activity (n = 1) (CYP2C8; 1.11 μM): 76.9%
% of Control Enzyme Activity (n = 1) (CYP2C8; 3.33 μM): 25.3%
% of Control Enzyme Activity (n = 1) (CYP2C8; 10 μM): 3.87%
IC50 (CYP2C8; human, microsomes, pH 7.4): 2080 nM
ka [5]: 1040 M⁻¹ s⁻¹
Solubility in Phosphate Buffer, Average [6]: 4.72 µM (≈ 2.22 µg/mL)
Solubility in Phosphate Buffer, R1 [6]: 4.35 µM (≈ 2.04 µg/mL)
IC50 (MERS-CoV pseudovirus [7]): 76.5 to 123 nM
IC100 [8]: 1.25 µM
inhibition of SARS-CoV-2 mediated cell-to-cell fusion (in words) [9]: potently inhibited the cell-to-cell fusion even at the lowest dose
inhibition at 0.25 µM ([9]; Severe acute respiratory syndrome coronavirus 2, Jurkat, at 250 nM, read-out: inhibitory activity of SARS-CoV-2 mediated cell-to-cell fusion): 62 to 79%
clearance (in words) [10]: low-clearance compound
antiviral activity against SARS-CoV-2 pseudovirus (in words) (SARS-CoV-2 pseudovirus): low nanomolar activity; also recorded: excellent antiviral activity; also recorded: low nM IC50
IC50 (SARS-CoV-2 pseudovirus; Severe acute respiratory syndrome-related coronavirus, read-out: IC50s against SARS-CoV-2 pseudovirus over the cell lines): 32.3 to 63.4 nM
IC50 (SARS-CoV pseudovirus [11]): 98 to 157 nM
IC50 (MERS-CoV pseudovirus [12]): 95 to 158 nM
AUC(0-t) (in vivo; iv, 5 mg/kg): 37500 ng·h/mL
AUC(0-t) (in vivo; po, 10 mg/kg): 12000 ng·h/mL
